# Assay results as given in patent US8859590B2, “Inhibitors of BACE1 and methods for treating Alzheimer's disease” (Purdue Research Foundation, priority 2008, dated 2014).
# Molecular target: BACE1 (Memapsin 2) (Homo sapiens, UniProt P56817)
# Test: Inhibition of BACE1 (memapsin 2) catalytic activity, fluorogenic substrate FS-2
# Type: biochemical
# Conditions: inhibition constants of BACE1; pH 4, 37° C.
# Experimental: Inhibition of BACE1 (Memapsin 2). Potency of compounds are determined by measurement of their inhibition of memapsin 2 catalytic activity toward a fluorescent substrate. […] Briefly, assays are performed at pH 4, 37° C., by pre-incubation of memapsin 2 enzyme with compound for 20 minutes. Activity measure is initiated by addition of a fluorogenic substrate FS-2 (Bachem Americas, Torrance, Calif.). Fluorescent signal increase over time is measured as a rate of hydrolysis of the peptide substrate. […]
# BACE1 (Memapsin 2), sequence (P56817 46-501): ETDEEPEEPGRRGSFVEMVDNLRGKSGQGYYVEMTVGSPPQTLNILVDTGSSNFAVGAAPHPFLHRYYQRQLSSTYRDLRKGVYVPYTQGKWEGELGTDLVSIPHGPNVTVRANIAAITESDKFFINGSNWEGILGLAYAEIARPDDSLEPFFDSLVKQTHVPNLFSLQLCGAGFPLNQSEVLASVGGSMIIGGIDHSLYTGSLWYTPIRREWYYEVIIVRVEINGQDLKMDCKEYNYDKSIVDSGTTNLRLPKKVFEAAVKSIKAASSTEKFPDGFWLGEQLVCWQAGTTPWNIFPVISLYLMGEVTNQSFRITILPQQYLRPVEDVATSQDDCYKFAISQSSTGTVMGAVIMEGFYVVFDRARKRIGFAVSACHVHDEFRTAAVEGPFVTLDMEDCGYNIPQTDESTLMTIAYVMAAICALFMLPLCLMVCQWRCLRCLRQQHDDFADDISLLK
row,SMILES,Ki [µM]
1,C[C@@H](NC(=O)c1cc(C(=O)N[C@H](CN[C@H]2c3ccccc3C[C@H]2O)Cc2ccccc2)cc(N(C)S(C)(=O)=O)c1)c1ccccc1 [Example 0427],< 1000
2,C[C@@H](NC(=O)c1cc(C(=O)N[C@H](CN[C@@H]2c3ccccc3C[C@@H]2O)Cc2ccccc2)cc(N(C)S(C)(=O)=O)c1)c1ccccc1 [Example 0407],< 1000
3,C[C@@H](NC(=O)c1cc(C(=O)N[C@H](CN[C@H](CO)Cc2ccccc2)Cc2ccccc2)cc(N(C)S(C)(=O)=O)c1)c1ccccc1 [Example 0397],< 1000
4,COC(=O)[C@H](NC[C@H](Cc1ccccc1)NC(=O)c1cc(C(=O)N[C@H](C)c2ccccc2)cc(N(C)S(C)(=O)=O)c1)[C@@H](C)O [Example 0417],< 1000
5,COc1cccc([C@@H](NC[C@H](Cc2ccccc2)NC(=O)c2cccc(C(=O)N(C)Cc3nc(C)cs3)c2)[C@H](O)Cc2ccccc2)c1 [Example 0439],> 1000

# Next, values leading:
row,Ki [µM],SMILES
1,> 1000,COc1cccc([C@H](NC[C@H](Cc2ccccc2)NC(=O)c2cccc(C(=O)N(C)Cc3nc(C)cs3)c2)[C@H](O)Cc2ccccc2)c1 [Example 0449]
2,< 1000,Cc1csc(CN(C)C(=O)c2cccc(C(=O)N[C@H](CN[C@H](C(=O)NCC(C)C)[C@H](C)O)Cc3ccccc3)c2)n1 [Example 0637]
3,< 0.1,CC(C)CNC[C@@H](NC[C@H](Cc1ccccc1)NC(=O)c1cc(C(=O)N[C@H](C)c2ccccc2)cc(N(C)S(C)(=O)=O)c1)[C@H](C)O [Example 1439]
4,< 1000,Cc1csc(CN(C)C(=O)c2cccc(C(=O)N[C@H](CN[C@@H]3c4ccccc4C[C@@H]3O)Cc3ccccc3)c2)n1 [Example 0647]
5,> 1000,COC(=O)[C@H](NC[C@H](Cc1ccccc1)NC(=O)c1cccc(C(=O)N(C)Cc2nc(C)cs2)c1)[C@@H](C)O [Example 0667]
6,< 0.1,CC(C)CNC[C@@H](NC[C@H](Cc1ccccc1)NC(=O)c1cc(C(=O)N[C@H](C)c2ccccc2)cc(N(C)S(C)(=O)=O)c1)[C@@H](O)CC(C)C [Example 1479]
